# The supplement of paper PMC5579334
# Assays:
# STS26T [1] = test: relative IC50 (inflection point of fitted dose-response curve, CellTiter-Glo viability, 72 h; top asymptote may be below 50% inhibition); higher = less potent
# Method in brief: (§1)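 MPNST cell lines and primary human Schwann cells (750–1000 cells per well) went into 384-well plates preprinted with each compound at five concentrations in 10-fold steps. Plates were incubated 72 h at 37 °C, 5% CO2. Viability was read as CellTiter-Glo ATP luminescence, scaled between vehicle and positive-control wells, with duplicates averaged where present. Percent inhibition is at the top concentration; drug sensitivity score and relative IC50 (censored at top concentration) come from four-parameter logistic fits.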
# S462 = test: as above
# Method in brief: as §1
# YST-1 = test: as above
# Method in brief: as §1
# ST8814 [2] = test: as above
# Method in brief: as §1
# HS-PSS [3] = test: as above
# Method in brief: as §1
# HSC2 [4] = test: relative IC50 (inflection point of fitted dose-response curve, CellTox-Green cytotoxicity, 72 h; top asymptote may be below 50%); higher = less potent
# Method in brief: (§2)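 MPNST cell lines and primary human Schwann cells were incubated 72 h at 37 °C in 384-well plates holding five 10-fold compound dilutions. CellTox-Green was added before seeding at a final 1:1000 dilution and reported fluorescence from DNA released by disrupted cells. Signals were scaled to vehicle and positive-control wells, and cultures failing plate quality control were dropped. Drug sensitivity score and relative IC50 come from four-parameter logistic fits, with IC50 censored at the top concentration.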
# STS26T [5] = test: as above
# Method in brief: as §2
# HSC1 [6] = test: as above
# Method in brief: as §2
# ST8814 [7] = test: as above
# Method in brief: as §2
# HS-PSS [8] = test: as above
# Method in brief: as §2
# HSC2 [9] = test: relative IC50 (inflection point of fitted dose-response curve, CellTiter-Glo viability, 72 h; top asymptote may be below 50% inhibition); higher = less potent
# Method in brief: as §1
# HSC1 [10] = test: as above
# Method in brief: as §1
# HS-Sch-2 = test: as above
# Method in brief: as §1
# S1507-2 = test: as above
# Method in brief: as §1
SMILES,relative IC50 (STS26T [1]) [µM],relative IC50 (S462) [µM],relative IC50 (YST-1) [µM],relative IC50 (ST8814 [2]) [µM],relative IC50 (HS-PSS [3]) [µM],relative IC50 (HSC2 [4]) [µM],relative IC50 (STS26T [5]) [µM],relative IC50 (HSC1 [6]) [µM],relative IC50 (ST8814 [7]) [µM],relative IC50 (HS-PSS [8]) [µM],relative IC50 (HSC2 [9]) [µM],relative IC50 (HSC1 [10]) [µM],relative IC50 (HS-Sch-2) [µM],relative IC50 (S1507-2) [µM]
Cc1ccc(Nc2nccc(N(C)c3ccc4c(C)n(C)nc4c3)n2)cc1S(N)(=O)=O [Pazopanib],> 10,> 10,> 10,> 10,0.605,> 10,> 10,> 10,> 10,> 10,–,–,–,–
COCC1(CO)C(=O)C2CCN1CC2 (configuration not stated) [Prima-1 Met],–,–,–,> 10,–,> 10,> 10,> 10,> 10,–,2.14,0.572,–,–
CO[C@H]1C[C@@H]2CC[C@@H](C)[C@@](O)(O2)C(=O)C(=O)N2CCCC[C@H]2C(=O)O[C@H]([C@H](C)C[C@@H]2CC[C@@H](O)[C@H](OC)C2)CC(=O)[C@H](C)/C=C(\C)[C@@H](O)[C@@H](OC)C(=O)[C@H](C)C[C@H](C)/C=C/C=C/C=C/1C [Sirolimus],0.0217,> 0.1,0.00609,–,0.00371,> 0.1,> 0.1,> 0.1,> 0.1,> 0.1,–,–,0.00638,–
Cc1cc(Nc2nc(N[C@@H](C)c3ncc(F)cn3)ncc2Cl)[nH]n1 [AZD1480],–,–,–,–,–,–,–,> 1,> 1,> 1,–,0.193,> 1,–
CC(C)N(CCCNC(=O)Nc1ccc(C(C)(C)C)cc1)C[C@H]1O[C@@H](n2cc(Br)c3c(N)ncnc32)[C@H](O)[C@@H]1O [SGC0946],> 10,–,3.67,3.45,1.94,> 10,> 10,> 10,3.07,2.49,–,–,3,2.09
CC[C@@H]1C(=O)OC[C@@H]1Cc1cncn1C [Pilocarpine],> 40,> 40,> 40,> 40,> 40,> 40,> 40,> 40,> 40,> 40,> 40,> 40,–,–
CNC(=O)c1ccc(N2C(=S)N(c3ccc(C#N)c(C(F)(F)F)c3)C(=O)C2(C)C)cc1F [Enzalutamide],> 10,> 10,> 10,–,> 10,> 10,> 10,> 10,> 10,> 10,> 10,–,> 10,–
COc1nc(N)nc2c1ncn2[C@@H]1O[C@H](CO)[C@@H](O)[C@@H]1O [Nelarabine],> 10,> 10,> 10,> 10,> 10,–,> 10,> 10,> 10,> 10,> 10,> 10,> 10,–
Cc1c(C(=O)Nc2ccc(N3C[C@@H](C)O[C@@H](C)C3)nc2)cccc1-c1ccc(OC(F)(F)F)cc1 [Erismodegib],–,> 10,–,> 10,–,–,> 10,–,> 10,–,> 10,> 10,–,–
CNC(=O)c1ccc(N2C(=S)N(c3ccc(C#N)c(C(F)(F)F)c3)C(=O)C23CCC3)cc1F [RD162],> 10,> 10,> 10,–,> 10,> 10,> 10,> 10,> 10,> 10,> 10,–,> 10,–
Nc1cccc2c1C(=O)N(C1CCC(=O)NC1=O)C2=O (configuration not stated) [Pomalidomide],> 10,–,> 10,> 10,> 10,> 10,> 10,> 10,> 10,> 10,> 10,> 10,> 10,–
COc1cc2/c(=N/c3ccc(Br)cc3F)nc[nH]c2cc1OCC1CCN(C)CC1 [Vandetanib],–,> 1,> 1,> 1,0.0865,> 1,> 1,> 1,–,–,> 1,> 1,> 1,–
Cc1c(N)nc([C@H](CC(N)=O)NC[C@H](N)C(N)=O)nc1C(=O)N[C@H](C(=O)N[C@H](C)[C@@H](O)[C@H](C)C(=O)N[C@H](C(=O)NCCc1nc(-c2nc(C(=O)NCCC[S+](C)C)cs2)cs1)[C@@H](C)O)[C@@H](O[C@@H]1O[C@@H](CO)[C@@H](O)[C@H](O)[C@@H]1O[C@H]1O[C@H](CO)[C@@H](O)[C@H](OC(N)=O)[C@@H]1O)c1c[nH]cn1 [Bleomycin],1.67,2.27,0.594,1.62,0.835,–,0.328,> 10,2.85,–,0.284,0.58,0.923,–
COc1ccc(C2=N[C@@H](c3ccc(Cl)cc3)[C@@H](c3ccc(Cl)cc3)N2C(=O)N2CCNC(=O)C2)c(OC(C)C)c1 [Nutlin-3],–,> 10,1.41,2.05,–,> 10,> 10,> 10,–,> 10,1.22,1.49,> 10,–
CC1=C2C[C@H]3[C@@H](CC=C4C[C@@H](O)CC[C@@]43C)[C@@H]2CC[C@]12O[C@@H]1C[C@H](C)CN[C@H]1[C@H]2C [Cyclopamine],> 10,> 10,–,> 10,–,> 10,> 10,> 10,> 10,–,> 10,> 10,–,–
CNC(=O)c1ccccc1Sc1ccc2c(/C=C/c3ccccn3)n[nH]c2c1 [Axitinib],1.51,0.933,0.972,1.36,2.58,–,1.38,–,–,> 10,0.694,1.2,1.7,–
